Measured values taken from the supplement of paper PMC5908809.

Columns and labels:
[1] = test system: normal NK cells expanded with K562-aAPC; assay: percent inhibition of viability; higher = more inhibition; details: 72 h, IL-2 2.5 ng/mL
Protocol: (§1)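 Drug sensitivity and resistance testing on K562-aAPC-expanded normal NK cells: 5 concentrations (10-fold steps over a 10,000-fold range), 72 h at 37 °C, viability by CellTiter-Glo normalised to DMSO and benzethonium chloride controls; DSS from the fitted curve.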

DERL-7 (IL-2 2.5 ng/mL) [2] = assay: as above; details: 72 h
IMC-1 (IL-2 20 ng/mL) [3] = assay: as above; details: 72 h
KAI3 (IL-2 2.5 ng/mL) [4] = assay: as above; details: 72 h
KHYG-1 (IL-2 2.5 ng/mL) [5] = assay: as above; details: 72 h
NK-92 (IL-2 2.5 ng/mL) [6] = assay: as above; details: 72 h
NK-YS (IL-2 2.5 ng/mL) [7] = assay: as above; details: 72 h
NKL (IL-2 2.5 ng/mL) [8] = assay: as above; details: 72 h
SNK-6 (IL-2 2.5 ng/mL) [9] = assay: as above; details: 72 h
YT (IL-2 2.5 ng/mL) [10] = assay: as above; details: 72 h
[11] = test system: normal primary NK cells, pool 1 (3 donors) (IL-2 2.5 ng/mL); assay: as above; details: 72 h
[12] = test system: normal primary NK cells, pool 1 (3 donors), resting (IL-2 0 ng/mL); assay: as above; details: 72 h
[13] = test system: normal primary NK cells, pool 2 (3 donors) (IL-2 2.5 ng/mL); assay: as above; details: 72 h
[14] = test system: normal primary NK cells, pool 3 (3 donors) (IL-2 2.5 ng/mL); assay: as above; details: 72 h
[15] = test system: normal NK cells expanded with K562-aAPC; assay: drug sensitivity score (DSS) (DSS units); higher = more sensitive; extreme values may be limits of the assay; details: 72 h; IL-2 2.5 ng/mL
Protocol: as §1

DERL-7 (IL-2 2.5 ng/mL) [16] = assay: as above; details: 72 h
IMC-1 (IL-2 20 ng/mL) [17] = assay: as above; details: 72 h
KAI3 (IL-2 2.5 ng/mL) [18] = assay: as above; details: 72 h
KHYG-1 (IL-2 2.5 ng/mL) [19] = assay: as above; details: 72 h
NK-92 (IL-2 2.5 ng/mL) [20] = assay: as above; details: 72 h
NK-YS (IL-2 2.5 ng/mL) [21] = assay: as above; details: 72 h
NKL (IL-2 2.5 ng/mL) [22] = assay: as above; details: 72 h
SNK-6 (IL-2 2.5 ng/mL) [23] = assay: as above; details: 72 h
YT (IL-2 2.5 ng/mL) [24] = assay: as above; details: 72 h
[25] = test system: normal primary NK cells, pool 1 (3 donors) (IL-2 2.5 ng/mL); assay: as above; details: 72 h
[26] = test system: normal primary NK cells, pool 1 (3 donors), resting (IL-2 0 ng/mL); assay: as above; details: 72 h
[27] = test system: normal primary NK cells, pool 2 (3 donors) (IL-2 2.5 ng/mL); assay: as above; details: 72 h
[28] = test system: normal primary NK cells, pool 3 (3 donors) (IL-2 2.5 ng/mL); assay: as above; details: 72 h

Nc1ncnc2c1nc(Cl)n2[C@@H]1O[C@H](CO)[C@@H](O)[C@H]1O [8-chloro-adenosine] (max concentration tested 50000 nM)
percent inhibition of viability [%]
Details | 5 nM | 50 nM | 500 nM | 5000 nM | 50000 nM
DERL-7 (IL-2 2.5 ng/mL) [2] | -0.76 | -2.87 | 38.2 | 96.9 | 101
IMC-1 (IL-2 20 ng/mL) [3] | -4.61 | -4.66 | -2.73 | -11.7 | 66.7
KAI3 (IL-2 2.5 ng/mL) [4] | -13.1 | -12.4 | 38.3 | 86.7 | 92.9
KHYG-1 (IL-2 2.5 ng/mL) [5] | -6.84 | -4.5 | 1.43 | 75.4 | 94
NK-92 (IL-2 2.5 ng/mL) [6] | -20.2 | -17.7 | 8.7 | 44.5 | 64
NK-YS (IL-2 2.5 ng/mL) [7] | -8.76 | -5.07 | 22.4 | 73.6 | 92.2
NKL (IL-2 2.5 ng/mL) [8] | -21.8 | -24.6 | -10.7 | 40.7 | 75.6
SNK-6 (IL-2 2.5 ng/mL) [9] | 21.5 | 20.6 | 46.5 | 92.8 | 96.9
YT (IL-2 2.5 ng/mL) [10] | -2.82 | -1.05 | 1.56 | 66.9 | 72.2
[1] | -0.51 | -6.13 | 2.57 | 35.4 | 73
[11] | -2.27 | -6.47 | -3.95 | 30.1 | 77.2
[12] | -17.2 | -29.2 | -19.8 | 36.1 | 78.2
[13] | -8.69 | 0.94 | 1.41 | 28 | 71.1
[14] | -18.1 | -3.17 | -4.4 | 17.3 | 57.7

Details | drug sensitivity score
DERL-7 (IL-2 2.5 ng/mL) [16] | 22.6
IMC-1 (IL-2 20 ng/mL) [17] | 2.97
KAI3 (IL-2 2.5 ng/mL) [18] | 21.9
KHYG-1 (IL-2 2.5 ng/mL) [19] | 14
NK-92 (IL-2 2.5 ng/mL) [20] | 9.34
NK-YS (IL-2 2.5 ng/mL) [21] | 16.3
NKL (IL-2 2.5 ng/mL) [22] | 9.19
SNK-6 (IL-2 2.5 ng/mL) [23] | 23.8
YT (IL-2 2.5 ng/mL) [24] | 12.5
[15] | 8.27
[25] | 8.37
[26] | 8.97
[27] | 7.63
[28] | 5.7
